# Legend:
# [1] = molecular target: T1, Mcl-1/Bim interaction, recombinant human Mcl-1 (171-327) (Homo sapiens, UniProt Q07820); assay: Cell free Mcl-1: Bim Affinity Assay (Mcl-1 HTRF); format: binding; details: cell free Mcl-1:Bim TR-FRET, recombinant human Mcl-1 (171-327)
# T1 construct: made in house
# Method in brief: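 Read-out is time-resolved FRET after overnight incubation, using a biotin-labelled peptide from human Bim (51-76) as the binding partner; IC50 was derived from competition curves.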
# [2] = tested on: OPM-2 human multiple myeloma cell line; assay: Cell Viability Assay (OPM-2 10 FBS); format: cell-based; details: OPM-2 cells, 16 h, CellTiter-Glo
# Method in brief: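 ATP-based luminescence (CellTiter-Glo) measured after a 16 h compound treatment of OPM-2 cells seeded at 3000 cells/well in 10% FBS medium. IC50 values derived by 4-parameter logistic fitting of serial dilutions.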
# T1 sequence (Q07820 171-327): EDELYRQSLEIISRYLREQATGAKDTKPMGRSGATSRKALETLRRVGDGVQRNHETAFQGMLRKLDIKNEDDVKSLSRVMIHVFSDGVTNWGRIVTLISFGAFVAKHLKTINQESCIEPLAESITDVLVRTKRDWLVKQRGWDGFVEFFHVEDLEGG
SMILES,IC50 [1] [nM],IC50 [2] [nM],"IC50 ([2]; Homo sapiens, OPM-2, 16 h) [nM]"
CC(C)OC(=O)C[C@@H]1[C@@H](C)C/C=C\[C@H](O)[C@@H]2CC[C@H]2CN2C[C@@]3(CCCc4cc(Cl)ccc43)COc3ccc(cc32)C(=O)NS1(=O)=O [Example 570],8.44,3020,
"COC(=O)CN[C@H]1/C=C/CC[C@@H](C)S(=O)(=O)NC(=O)c2ccc3c(c2)N(C[C@@H]2CC[C@H]21)C[C@@]1(CCCc2cc(Cl)ccc21)CO3 [Example 599, methyl N-((1S,3′R,6′R,7′S,8′E,12′R)-6-chloro-12′-methyl-13′,13′-dioxido-15′-oxo-3,4-dihydro-2H-spiro[naphthalene-1,22′-[20]oxa[13]thia[1,14]diazatetracyclo[14.7.2.0^3,6.0^19,24]pentacosa [8,16,18,24]tetraen]-7′-yl)glycinate-trifluoroacetic Acid]",1.51,,652
"COC(=O)CN(CC(=O)OC)[C@H]1/C=C/CC[C@@H](C)S(=O)(=O)NC(=O)c2ccc3c(c2)N(C[C@@H]2CC[C@H]21)C[C@@]1(CCCc2cc(Cl)ccc21)CO3 [Example 600, dimethyl 2,2′-(((1S,3′R,6′R,7′S,8′E,12′R)-6-chloro-12′-methyl-13′,13′-dioxido-15′-oxo-3,4-dihydro-2H-spiro[naphthalene-1,22′-[20]oxa[13]thia[1,14]diazatetracyclo[14.7.2.0^3,6.0^19,24]pentacosa [8,16,18,24]tetraen]-7′-yl)imino)diacetate-trifluoroacetic Acid]",0.647,,104
"Cc1nc(CN(Cc2noc(C)n2)[C@H]2/C=C/CC[C@@H](C)S(=O)(=O)NC(=O)c3ccc4c(c3)N(C[C@@H]3CC[C@H]32)C[C@@]2(CCCc3cc(Cl)ccc32)CO4)no1 [Example 602, (1S,3′R,6′R,7′S,8′E,12′R)-7′-(bis((5-methyl-1,2,4-oxadiazol-3-yl)methyl)amino)-6-chloro-12′-methyl-3,4-dihydro-2H,15′H-spiro[naphthalene-1,22′-[20]oxa[13]thia[1,14]diazatetracyclo[14.7.2.0^3,6.0^19,24]pentacosa [8,16,18,24]tetraen]-15′-one 13′,13′-dioxide]",1.74,,727
"Cc1nc(CO[C@H]2/C=C/CC[C@@H](C)S(=O)(=O)NC(=O)c3ccc4c(c3)N(C[C@@H]3CC[C@H]32)C[C@@]2(CCCc3cc(Cl)ccc32)CO4)no1 [Example 603, (1S,3′R,6′R,7′S,8′E,12′R)-6-chloro-12′-methyl-7′-((5-methyl-1,2,4-oxadiazol-3-yl)methoxy)-3,4-dihydro-2H,15′H-spiro[naphthalene-1,22′-[20]oxa[13]thia[1,14]diazatetracyclo[14.7.2.0^3,6.0^19,24]pentacosa [8,16,18,24]tetraen]-15′-one 13′,13′-dioxide]",0.667,,438
"CC[C@@H]1CC/C=C/[C@H](OC(N)=O)[C@@H]2CC[C@H]2CN2C[C@@]3(CCCc4cc(Cl)ccc43)COc3ccc(cc32)C(=O)NS1(=O)=O [Example 610, (1S,3′R,6′R,7′S,8′E,12′R)-6-chloro-12′-ethyl-13′,13′-dioxido-15′-oxo-3,4-dihydro-2H-spiro[naphthalene-1,22′-[20]oxa[13]thia[1,14]diazatetracyclo[14.7.2.0^3,6.0^19,24]pentacosa [8,16,18,24]tetraen]-7′-yl carbamate]",0.923,,1140
COC(=O)CC[C@@H]1CC/C=C/[C@H](O)[C@@H]2CC[C@H]2CN2C[C@@]3(CCCc4cc(Cl)ccc43)COc3ccc(cc32)C(=O)NS1(=O)=O [Example 616],0.178,482,
COC(=O)C[C@H]1CC/C=C/[C@H](O)[C@@H]2CC[C@H]2CN2C[C@@]3(CCCc4cc(Cl)ccc43)COc3ccc(cc32)C(=O)NS1(=O)=O [Example 620],0.71,4080,
CCOC(=O)CO[C@H]1/C=C/CC[C@@H](CC(=O)OC)S(=O)(=O)NC(=O)c2ccc3c(c2)N(C[C@@H]2CC[C@H]21)C[C@@]1(CCCc2cc(Cl)ccc21)CO3 [Example 623],0.642,483,
COC(=O)C[C@@H]1CC/C=C/[C@H](OC)[C@@H]2CC[C@H]2CN2C[C@@]3(CCCc4cc(Cl)ccc43)COc3ccc(cc32)C(=O)NS1(=O)=O [Example 624],0.338,455,
COC(=O)CC1C(C)CC=CC(O)C2CCC2CN2CC3(CCCc4cc(Cl)ccc43)COc3ccc(cc32)C(=O)NS1(=O)=O (stereo not shown) [Example 647],0.188,,131
"CC[C@@H]1CC/C=C/[C@H](O)[C@@H]2CC[C@H]2CN2C[C@@]3(CCCc4cc(Cl)ccc43)COc3cc(F)c(cc32)C(=O)NS1(=O)=O [Example 655, (1S,3′R,6′R,7′S,8′E,12′R)-6-chloro-12′-ethyl-17′-fluoro-7′-hydroxy-3,4-dihydro-2H,15′H-spiro[naphthalene-1,22′-[20]oxa[13]thia[1,14]diazatetracyclo[14.7.2.0^3,6.0^19,24]pentacosa [8,16,18,24]tetraen]-15′-one 13′,13′-dioxide]",0.884,,947
"CC[C@@H]1CC/C=C/[C@H](O)[C@@H]2CC[C@H]2CN2C[C@@]3(CCCc4cc(Cl)ccc43)COc3cc(Cl)c(cc32)C(=O)NS1(=O)=O [Example 657, (1S,3′R,6′R,7′S,8′E,12′R)-6,17′-dichloro-12′-ethyl-7′-hydroxy-3,4-dihydro-2H,15′H-spiro[naphthalene-1,22′-[20]oxa[13]thia[1,14]diazatetracyclo[14.7.2.0^3,6.0^19,24]pentacosa[8,16,18,24]tetraen]-15′-one 13′,13′-dioxide]",11.2,,24700
"O=C1NS(=O)(=O)NCCC/C=C/[C@H](O)[C@@H]2CC[C@H]2CN2C[C@@]3(CCCc4cc(Cl)ccc43)COc3ccc1cc32 [Example 660, (1S,3′R,6′R,7′S,8′E)-6-chloro-7′-hydroxy-3,4-dihydro-2H,16′H-spiro[naphthalene-1,23′-[21]oxa[14]thia[1,13,15]triazatetracyclo[15.7.2.0^3,6.0^20,25]hexacosa[8,17,19,25]tetraen]-16′-one 14′,14′-dioxide]",0.376,,416
"COCCN1CCC/C=C/[C@H](O)[C@@H]2CC[C@H]2CN2C[C@@]3(CCCc4cc(Cl)ccc43)COc3ccc(cc32)C(=O)NS1(=O)=O [Example 665, (1S,3′R,6′R,7′S,8′E)-6-chloro-7′-hydroxy-13′-(2-methoxyethyl)-3,4-dihydro-2H,16′H-spiro[naphthalene-1,23′-[21]oxa[14]thia[1,13,15]triazatetracyclo[15.7.2.0^3,6.0^20,25]hexacosa[8,17,19,25]tetraen]-16′-one 14′,14′-dioxide]",2.89,,1320
"COC[C@H](O)CN1[C@@H](C)C/C=C/[C@H](O)[C@@H]2CC[C@H]2CN2C[C@@]3(CCCc4cc(Cl)ccc43)COc3ccc(cc32)C(=O)NS1(=O)=O [Example 687, (1S,3′R,6′R,7′S,8′E,11′S)-6-chloro-7′-hydroxy-12′-((2R)-2-hydroxy-3-methoxypropyl)-11′-methyl-3,4-dihydro-2H,15′H-spiro[naphthalene-1,22′-[20]oxa[13]thia[1,12,14]triazatetracyclo[14.7.2.0^3,6.0^19,24]pentacosa[8,16,18,24]tetraen]-15′-one 13′,13′-dioxide]",0.207,,148
"CC[C@@H]1CC/C=C/[C@H](OC)[C@@H]2CC[C@H]2CN2C[C@@]3(CCCc4cc(Cl)ccc43)COc3cc(Cl)c(cc32)C(=O)NS1(=O)=O [Example 688, (1S,3′R,6′R,7′S,8′E,12′R)-6,17′-dichloro-12′-ethyl-7′-methoxy-3,4-dihydro-2H,15′H-spiro[naphthalene-1,22′-[20]oxa[13]thia[1,14]diazatetracyclo[14.7.2.0^3,6.0^19,24]pentacosa [8,16,18,24]tetraen]-15′-one 13′,13′-dioxide]",14.1,,13600
"O=C1NS(=O)(=O)N(Cc2ncco2)CC/C=C/[C@H](O)[C@@H]2CC[C@H]2CN2C[C@@]3(CCCc4cc(Cl)ccc43)COc3ccc1cc32 [Example 694, (1S,3′R,6′R,7′S,8′E)-6-chloro-7′-hydroxy-12′-(1,3-oxazol-2-ylmethyl)-3,4-dihydro-2H,15′H-spiro[naphthalene-1,22′-[20]oxa[13]thia[1,12,14]triazatetracyclo[14.7.2.0^3,6.0^19,24]pentacosa[8,16,18,24]tetraen]-15′-one 13′,13′-dioxide]",0.763,,968
"CC[C@@H]1CC/C=C/[C@H](OC)[C@@H]2CC[C@H]2CN2C[C@@]3(CCCc4cc(Cl)ccc43)COc3cc(F)c(cc32)C(=O)NS1(=O)=O [Example 701, (1S,3′R,6′R,7′S,8′E,12′R)-6-chloro-12′-ethyl-17′-fluoro-7′-methoxy-3,4-dihydro-2H,15′H-spiro[naphthalene-1,22′-[20]oxa[13]thia[1,14]diazatetracyclo[14.7.2.0^3,6.0^19,24]pentacosa [8,16,18,24]tetraen]-15′-one 13′,13′-dioxide]",1.44,,2020
"COCCO[C@H]1/C=C/C[C@H](C)[C@@H](C)S(=O)(=O)NC(=O)c2ccc3c(c2)N(C[C@@H]2CC[C@H]21)C[C@@]1(CCCc2cc(Cl)ccc21)CO3 [Example 719, (1S,3′R,6′R,7′S,8′E,11′S,12′R)-6-chloro-7′-(2-methoxyethoxy)-11′,12′-dimethyl-3,4-dihydro-2H,15′H-spiro[naphthalene-1,22′-[20]oxa[13]thia[1,14]diazatetracyclo[14.7.2.0^3,6.0^19,24]pentacosa[8,16,18,24]tetraen]-15′-one-13′, 13′-dioxide]",0.366,,117
